{
  "source": "patent US20130338126A1",
  "about": "“Ophthalmic Suspension for Ocular Use” (Allergan, Inc., priority 2008, published 2013)",
  "origin": "cited, not measured here",
  "key": {"[1]": {"tested_on": "Corynebacterium propinquum, Staphylococcus aureus, Staphylococcus epidermidis, Streptococcus mitis, Streptococcus pneumoniae, Haemophilus influenzae", "settings": "both in vitro and clinically, in conjunctival infections"}, "[2]": {"tested_on": "methicillin resistant Staphylococcus aureus, and Staphylococcus epidermidis", "settings": "in vitro, gram-positive microorganisms"}, "[3]": {"tested_on": "Streptococcus epidermidis"}, "[4]": {"tested_on": "gram-negative microorganisms", "settings": "many gram-negative microorganisms"}, "[5]": {"tested_on": "Haemophylus influenzae clinical isolated cases", "settings": "clinical isolates"}, "bacteria": {"tested_on": "bacteria", "settings": "in vitro"}, "[6]": {"tested_on": "Staphylococcus aureus and Staphylococcus epidermidis"}, "[7]": {"tested_on": "topoisomerase II or gyrase mutations"}, "[8]": {"settings": "ophthalmic solution 0.3% or 0.5% w/v, 2 drops up to 8 times a day; below inferior limit of quantification, all individuals"}, "[9]": {"settings": "topical; p<0.005"}, "bacterial conjunctivitis [10]": {"tested_on": "bacterial conjunctivitis", "settings": "0.3% ophthalmic solution, treated five days"}, "bacterial conjunctivitis [11]": {"tested_on": "bacterial conjunctivitis", "settings": "day 6 of treatment"}, "[12]": {"tested_on": "bacterial flora in the eye"}, "[13]": {"tested_on": "379 isolated microorganisms", "settings": "first day of treatment"}, "[14]": {"tested_on": "Streptococcus pneumoniae isolates", "settings": "all study visits"}, "[15]": {"tested_on": "gram-negative bacteria, including all Haemophilus influenzae isolates", "settings": "all study visits"}, "[16]": {"settings": "human, in vivo"}},
  "data": [
    {"smiles": "COc1c(N2CCNC(C)C2)c(F)cc2c(=O)c(C(=O)O)cn(C3CC3)c12", "note": "(centres unmarked) [gatifloxacin]", "values": [
      {"measurement": "activity against most strains", "setting": "[1]", "value": "shown to be active"},
      {"measurement": "potency compared with ciprofloxacin, ofloxacin, levofloxacin and moxifloxacin", "setting": "[2]", "value": "more powerful than other quinolones"},
      {"measurement": "effectiveness relative to ofloxacin", "setting": "[3]", "value": "eight times more effective"},
      {"measurement": "activity compared to ofloxacin", "setting": "[4]", "value": "increased activity compared to ofloxacin"},
      {"measurement": "effectiveness relative to ofloxacin", "setting": "[5]", "value": "two times more effective"},
      {"measurement": "effectiveness relative to ciprofloxacin", "setting": "mycobacterium", "value": "four times more effective/active"},
      {"measurement": "action when combined with amicacin and claritromicin", "setting": "Mycobacterium chelonae", "value": "synergistic action"},
      {"measurement": "effectiveness relative to ciprofloxacin", "setting": "Mycobacterium chelonae; p<0.001", "value": "more effective than ciprofloxacin"},
      {"measurement": "bacterial resistance", "setting": "bacteria", "value": "low"},
      {"measurement": "bacterial resistance rates", "setting": "[6]", "value": "lower for gatifloxacin than for ciprofloxacin or norfloxacin"},
      {"measurement": "effect of mutations, compared to ofloxacin, ciprofloxacin, sparfloxacin and trovafloxacin", "setting": "[7]", "value": "less affected"},
      {"measurement": "cross-resistance with aminoglycosides, macrolides and tetracycline antibiotics", "setting": "pathogenic agents", "value": "No cross-resistance has been observed"},
      {"measurement": "cross-resistance with some other fluoroquinolones", "setting": "pathogenic agents; systemic gatifloxacin", "value": "Cross-resistance has been observed"},
      {"measurement": "plasma levels", "setting": "[8]", "value": "< 5", "unit": "ng/mL"},
      {"measurement": "penetration in the eye structures compared to ciprofloxacin", "setting": "[9]", "value": "better penetration in the tissue"},
      {"measurement": "killing rate of etiological agents", "setting": "bacterial conjunctivitis [10]", "value": 92, "unit": "%"},
      {"measurement": "clinical cure rate", "setting": "bacterial conjunctivitis [10]; culture-confirmed bacterial conjunctivitis", "value": 77, "unit": "%"},
      {"measurement": "rates of microbiological cure", "setting": "bacterial conjunctivitis [11]", "value": 83.3, "unit": "%"},
      {"measurement": "action against gram-positive cocci versus ciprofloxacin", "setting": "bacterial keratitis; p<0.001", "value": "significantly superior"},
      {"measurement": "rate of complete ulcer healing versus ciprofloxacin", "setting": "bacterial keratitis; patients with keratitis", "value": "significantly higher rate of complete ulcer healing"},
      {"measurement": "rate of bacterial reduction in the conjunctiva", "setting": "[12]; gatifloxacin 0.3% / levofloxacin 0.5% ophthalmic solutions, one week pre-operative", "value": 74.3, "unit": "%"},
      {"measurement": "post-operative infection (endophthalmitis)", "setting": "[12]; one week pre-operative treatment, cataract surgery", "value": "None of the individuals treated develop a post-operative infection"},
      {"measurement": "sensitiveness of isolates", "setting": "[13]", "value": 95.8, "unit": "%"},
      {"measurement": "sensitivity of isolates", "setting": "[14]", "value": "All Streptococcus pneumoniae isolates were sensitive"},
      {"measurement": "sensitivity of isolates", "setting": "[15]", "value": "All gram-negative bacteria were also sensitive"},
      {"measurement": "adverse events: frequency, type, intensity or relation to causes versus ofloxacin or placebo", "setting": "[16]", "value": "no statistically significant differences"}
    ]}
  ]
}
